Tested on: Echinochloa crus-galli
Assay: Test Example 1: herbicidal effect test by treatment of rice paddy soil (immediately after seeding)
Format: in vivo
Conditions: 120 g/10a active ingredient, dry weight vs untreated area, 14 days after treatment
Method in brief: (§1)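 Pre-emergence paddy water application, 120 g a.i./10 ares, applied immediately post-seeding into ~3 cm flood; glasshouse; duplicate pots; dry weight at 14 d → % inhibition = (1 − treated/untreated) × 100.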

Point of comparison: `Cc1c(Cc2ccccc2N(C(=O)Oc2ccccc2)S(=O)(=O)C(F)(F)F)c(=O)on1C(C)c1ccccc1` (centres unmarked) [Compound 1-766], “Herbicidal rate (%) Echinochloa crus-galli” value 90%. Against it:
- CCCCC(C)n1oc(=O)c(Cc2ccccc2N(S(=O)(=O)C(F)(F)F)S(=O)(=O)C(F)(F)F)c1C (centres unmarked) [Compound 1-977] — higher, 100%

Tested on: Scirpus juncoides
Assay: as above
Format: in vivo
Conditions: 120 g/10a active ingredient, dry weight vs untreated area, 14 days after treatment
Method in brief: as §1

Point of comparison: `CCCCC(C)n1oc(=O)c(Cc2ccccc2N(S(=O)(=O)C(F)(F)F)S(=O)(=O)C(F)(F)F)c1C` (centres unmarked) [Compound 1-977], “Herbicidal rate (%) Scirpus juncoides” value 90%. Against it:
- Cc1c(Cc2ccccc2N(C(=O)Oc2ccccc2)S(=O)(=O)C(F)(F)F)c(=O)on1C(C)c1ccccc1 (centres unmarked) [Compound 1-766] — the same, 90%

Tested on: broad leaf weeds (Lindernia pyxidaria and Monochoria vaginalis)
Assay: as above
Format: in vivo
Conditions: Lindernia pyxidaria, 120 g/10a active ingredient, dry weight vs untreated area, 14 days after treatment
Method in brief: as §1

Point of comparison: `CCCCC(C)n1oc(=O)c(Cc2ccccc2N(S(=O)(=O)C(F)(F)F)S(=O)(=O)C(F)(F)F)c1C` (centres unmarked) [Compound 1-977], “Herbicidal rate (%) Lindernia pyxidaria” value 100%. Against it:
- Cc1c(Cc2ccccc2N(C(=O)Oc2ccccc2)S(=O)(=O)C(F)(F)F)c(=O)on1C(C)c1ccccc1 (centres unmarked) [Compound 1-766] — lower, 90%

Same assay, conditions: Monochoria vaginalis, 120 g/10a active ingredient, dry weight vs untreated area, 14 days after treatment

Point of comparison: `CCCCC(C)n1oc(=O)c(Cc2ccccc2N(S(=O)(=O)C(F)(F)F)S(=O)(=O)C(F)(F)F)c1C` (centres unmarked) [Compound 1-977], “Herbicidal rate (%) Monochoria vaginalis” value 100%. Against it:
- Cc1c(Cc2ccccc2N(C(=O)Oc2ccccc2)S(=O)(=O)C(F)(F)F)c(=O)on1C(C)c1ccccc1 (centres unmarked) [Compound 1-766] — lower, 90%

Tested on: Echinochloa crus-galli
Assay: Test Example 2: herbicidal effect test by treatment during growing period in paddy rice cultivation (seven days after seeding)
Format: in vivo
Conditions: 120 g/10a active ingredient, assessed 14 days after treatment, dry weight vs untreated area
Method in brief: (§2)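 Paddy soil in Wagner pots with compound fertilizer, puddled; 30 seeds per species sown at 0–1 cm, flooded ~3 cm, greenhouse. Seven days after seeding, water-diluted emulsions were dropped into the water at 120 g active ingredient per 10 ares. Duplicate pots; herbicidal rate from dry weight versus untreated, 14 days after treatment.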

Point of comparison: `Cc1c(Cc2ccccc2N(C(=O)Oc2ccccc2)S(=O)(=O)C(F)(F)F)c(=O)on1C(C)c1ccccc1` (centres unmarked) [Compound 1-766], “Herbicidal rate (%) Echinochloa crus-galli” value 90%. Against it:
- CCCCC(C)n1oc(=O)c(Cc2ccccc2N(S(=O)(=O)C(F)(F)F)S(=O)(=O)C(F)(F)F)c1C (centres unmarked) [Compound 1-977] — higher, 100%

Tested on: Scirpus juncoides
Assay: as above
Format: in vivo
Conditions: 120 g/10a active ingredient, assessed 14 days after treatment, dry weight vs untreated area
Method in brief: as §2

Point of comparison: `CCCCC(C)n1oc(=O)c(Cc2ccccc2N(S(=O)(=O)C(F)(F)F)S(=O)(=O)C(F)(F)F)c1C` (centres unmarked) [Compound 1-977], “Herbicidal rate (%) Scirpus juncoides” value 90%. Against it:
- Cc1c(Cc2ccccc2N(C(=O)Oc2ccccc2)S(=O)(=O)C(F)(F)F)c(=O)on1C(C)c1ccccc1 (centres unmarked) [Compound 1-766] — the same, 90%

Tested on: broad leaf weeds (Lindernia pyxidaria and Monochoria vaginalis)
Assay: as above
Format: in vivo
Conditions: Lindernia pyxidaria, 120 g/10a active ingredient, assessed 14 days after treatment, dry weight vs untreated area
Method in brief: as §2

Point of comparison: `CCCCC(C)n1oc(=O)c(Cc2ccccc2N(S(=O)(=O)C(F)(F)F)S(=O)(=O)C(F)(F)F)c1C` (centres unmarked) [Compound 1-977], “Herbicidal rate (%) Lindernia pyxidaria” value 80%. Against it:
- Cc1c(Cc2ccccc2N(C(=O)Oc2ccccc2)S(=O)(=O)C(F)(F)F)c(=O)on1C(C)c1ccccc1 (centres unmarked) [Compound 1-766] — higher, 90%

Same assay, conditions: Monochoria vaginalis, 120 g/10a active ingredient, assessed 14 days after treatment, dry weight vs untreated area

Point of comparison: `CCCCC(C)n1oc(=O)c(Cc2ccccc2N(S(=O)(=O)C(F)(F)F)S(=O)(=O)C(F)(F)F)c1C` (centres unmarked) [Compound 1-977], “Herbicidal rate (%) Monochoria vaginalis” value 90%. Against it:
- Cc1c(Cc2ccccc2N(C(=O)Oc2ccccc2)S(=O)(=O)C(F)(F)F)c(=O)on1C(C)c1ccccc1 (centres unmarked) [Compound 1-766] — the same, 90%

Tested on: Amaranthus viridis
Assay: Test Example 3: herbicidal effect test by treatment of dry field farming soil (one day after seeding)
Format: in vivo
Conditions: 120 g/10a active ingredient, evaluated 14 days after treatment
Method in brief: (§3)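 Pre-emergence soil treatment: alluvial dry-field soil, 20 seeds per species mixed into top 1 cm, emulsion diluted in water sprayed one day after seeding at 100 L per 10 ares (120 g active ingredient per 10 ares). Duplicate pots; herbicidal rate (%) from dry weight vs untreated at 14 days.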

Point of comparison: `Cc1c(Cc2ccccc2N(C(=O)Oc2ccccc2)S(=O)(=O)C(F)(F)F)c(=O)on1C(C)c1ccccc1` (centres unmarked) [Compound 1-766], “herbicidal rate, Amaranthus viridis” value 90%. Against it:
- CCCCC(C)n1oc(=O)c(Cc2ccccc2N(S(=O)(=O)C(F)(F)F)S(=O)(=O)C(F)(F)F)c1C (centres unmarked) [Compound 1-977] — lower, 70%

Tested on: Chenopodium album
Assay: as above
Format: in vivo
Conditions: 120 g/10a active ingredient, evaluated 14 days after treatment
Method in brief: as §3

Point of comparison: `Cc1c(Cc2ccccc2N(C(=O)Oc2ccccc2)S(=O)(=O)C(F)(F)F)c(=O)on1C(C)c1ccccc1` (centres unmarked) [Compound 1-766], “herbicidal rate, Chenopodium album” value 90%. Against it:
- CCCCC(C)n1oc(=O)c(Cc2ccccc2N(S(=O)(=O)C(F)(F)F)S(=O)(=O)C(F)(F)F)c1C (centres unmarked) [Compound 1-977] — lower, 50%

Tested on: Echinochloa crus-galli
Assay: as above
Format: in vivo
Conditions: 120 g/10a active ingredient, evaluated 14 days after treatment
Method in brief: as §3

Point of comparison: `Cc1c(Cc2ccccc2N(C(=O)Oc2ccccc2)S(=O)(=O)C(F)(F)F)c(=O)on1C(C)c1ccccc1` (centres unmarked) [Compound 1-766], “herbicidal rate, Echinochloa crus-galli” value 90%. Against it:
- CCCCC(C)n1oc(=O)c(Cc2ccccc2N(S(=O)(=O)C(F)(F)F)S(=O)(=O)C(F)(F)F)c1C (centres unmarked) [Compound 1-977] — lower, 80%

Tested on: southern crabgrass
Assay: as above
Format: in vivo
Conditions: 120 g/10a active ingredient, evaluated 14 days after treatment
Method in brief: as §3

Point of comparison: `Cc1c(Cc2ccccc2N(C(=O)Oc2ccccc2)S(=O)(=O)C(F)(F)F)c(=O)on1C(C)c1ccccc1` (centres unmarked) [Compound 1-766], “herbicidal rate, southern crabgrass” value 90%. Against it:
- CCCCC(C)n1oc(=O)c(Cc2ccccc2N(S(=O)(=O)C(F)(F)F)S(=O)(=O)C(F)(F)F)c1C (centres unmarked) [Compound 1-977] — lower, 80%

Tested on: Amaranthus viridis
Assay: Test Example 4: herbicidal effect test by treatment of leave and stem in dry field farming (seven days after seeding)
Format: in vivo
Conditions: 120 g/10a active ingredient; emulsion sprayed seven days after seeding; evaluated 14 days after treatment
Method in brief: (§4)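 Weeds were seeded at 20 seeds per species into the top 1 cm of alluvial upland soil in pots, then sprayed 7 days after seeding with water-diluted emulsifiable concentrate at 100 L/10 a, giving 120 g active ingredient/10 a. Duplicate pots; herbicidal rate (%) was 14 days post-treatment, from dry weight versus untreated.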

Point of comparison: `Cc1c(Cc2ccccc2N(C(=O)Oc2ccccc2)S(=O)(=O)C(F)(F)F)c(=O)on1C(C)c1ccccc1` (centres unmarked) [Compound 1-766], “herbicidal effect (herbicidal rate), Amaranthus viridis” value 40%. Against it:
- CCCCC(C)n1oc(=O)c(Cc2ccccc2N(S(=O)(=O)C(F)(F)F)S(=O)(=O)C(F)(F)F)c1C (centres unmarked) [Compound 1-977] — higher, 60%

Tested on: Chenopodium album
Assay: as above
Format: in vivo
Conditions: 120 g/10a active ingredient; emulsion sprayed seven days after seeding; evaluated 14 days after treatment
Method in brief: as §4

Point of comparison: `CCCCC(C)n1oc(=O)c(Cc2ccccc2N(S(=O)(=O)C(F)(F)F)S(=O)(=O)C(F)(F)F)c1C` (centres unmarked) [Compound 1-977], “herbicidal effect (herbicidal rate), Chenopodium album” value 80%. Against it:
- Cc1c(Cc2ccccc2N(C(=O)Oc2ccccc2)S(=O)(=O)C(F)(F)F)c(=O)on1C(C)c1ccccc1 (centres unmarked) [Compound 1-766] — lower, 40%

Tested on: Echinochloa crus-galli
Assay: as above
Format: in vivo
Conditions: 120 g/10a active ingredient; emulsion sprayed seven days after seeding; evaluated 14 days after treatment
Method in brief: as §4

Point of comparison: `CCCCC(C)n1oc(=O)c(Cc2ccccc2N(S(=O)(=O)C(F)(F)F)S(=O)(=O)C(F)(F)F)c1C` (centres unmarked) [Compound 1-977], “herbicidal effect (herbicidal rate), Echinochloa crus-galli” value 90%. Against it:
- Cc1c(Cc2ccccc2N(C(=O)Oc2ccccc2)S(=O)(=O)C(F)(F)F)c(=O)on1C(C)c1ccccc1 (centres unmarked) [Compound 1-766] — the same, 90%

Tested on: southern crabgrass
Assay: as above
Format: in vivo
Conditions: 120 g/10a active ingredient; emulsion sprayed seven days after seeding; evaluated 14 days after treatment
Method in brief: as §4

Point of comparison: `CCCCC(C)n1oc(=O)c(Cc2ccccc2N(S(=O)(=O)C(F)(F)F)S(=O)(=O)C(F)(F)F)c1C` (centres unmarked) [Compound 1-977], “herbicidal effect (herbicidal rate), southern crabgrass” value 80%. Against it:
- Cc1c(Cc2ccccc2N(C(=O)Oc2ccccc2)S(=O)(=O)C(F)(F)F)c(=O)on1C(C)c1ccccc1 (centres unmarked) [Compound 1-766] — higher, 90%

From patent publication US11109593B2, “Isoxazolin-5-one derivative and herbicide containing same as active ingredient” (HOKKO CHEMICAL INDUSTRY CO., LTD., priority 2017, dated 2021)
